Molecular target: T1, recombinant human vasopressin V2 receptors (Homo sapiens, UniProt P30518)
T1 construct: expressed in transfected cells; host or cells: CHO cell line (plasma membranes)
Assay: In vitro binding assay, [H3]-AVP displacement at vasopressin V2 receptors
Settings: plasma membranes from tissues or CHO cell line; 3.5 nM [H3]-AVP; 45 minutes at 25° C.; read-out: IC50 (concentration of product that inhibits 50% of the specific binding)
Experimental: The affinity of the compounds of the invention for vasopressin V2 receptors was measured in in vitro binding assays, as described in J. Pharmacol. Exp. Ther., (2002), 300, pp. 1122-1130.
Plasma membranes (approximately 20 μg/ml) originating from tissues or the CHO cell line expressing recombinant human vasopressin V2 receptors are incubated for 45 minutes at 25° C. in 200 μl of TRIS-HCl buffer (50 mM; pH 8.2) containing 2 mM of MgCl2, 1 mM of EDTA, 0.1% of BSA, 1 mg/ml of bacitracin and 3.5 nM of [H^3]-AVP. The reaction is stopped by filtration and washing over GF/B filters. The nonspecific binding is determined in the presence of 1 μM of AVP. The compounds of the invention, dissolved beforehand at the concentration of 10^−2 M in DMSO, are tested in a dilution range.
For each concentration, the results are expressed as percentage inhibition of specific binding. An IC50 (concentration of product that inhibits 50% of the specific binding) is determined for each of the products using the “RS1 binding” program (BBN Domain, Cambridge, Mass).

T1 sequence (P30518 whole entry): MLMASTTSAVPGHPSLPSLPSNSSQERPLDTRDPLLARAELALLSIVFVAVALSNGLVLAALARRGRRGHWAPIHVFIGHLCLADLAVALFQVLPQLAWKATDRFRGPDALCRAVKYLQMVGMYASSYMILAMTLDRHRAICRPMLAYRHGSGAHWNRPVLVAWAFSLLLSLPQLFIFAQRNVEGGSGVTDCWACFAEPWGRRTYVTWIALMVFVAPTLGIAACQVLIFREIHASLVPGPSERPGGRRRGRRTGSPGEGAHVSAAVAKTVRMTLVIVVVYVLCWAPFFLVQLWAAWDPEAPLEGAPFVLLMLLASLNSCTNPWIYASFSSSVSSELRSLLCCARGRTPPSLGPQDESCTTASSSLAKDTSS

IC50: ~7.3 nM
Structure (SMILES): CCOc1ccc2c(c1)C1(CCC(OCC(=O)N3CCOCC3)CC1)C(=O)N2S(=O)(=O)c1ccc(C(=O)NC(C)(C)C)cc1OC (stereo not shown) [Example]
